Data taken from patent US10058487B2, “Polymerizable dental material” (Muhlbauer Technology GmbH, priority 2014, dated 2018).
Converted amounts (≈) assume the structure as drawn.

Assay: Determination of the water solubility by UV/visible spectroscopy
Format: physicochemical
Conditions: 23 °C, thermodynamic from solid; saturated solution in deionized water, 23±2° C.; read-out: Solubility
Protocol: The water solubility was determined in deionized water by UV/visible spectroscopy. The spectra were recorded with a UV/visible spectrometer (Evolution 600, Thermo Scientific) between 200-900 nm. The measurement was carried out in quartz cells (path length 10 mm). The pure solvent deionized water was used for the background spectrum. The background spectrum was subtracted from the spectra of the coinitiators.
Dilute solutions of the different coinitiators with known concentrations were prepared in deionized water. The absorption of the different coinitiators was measured in the absorption maximum (between 290-310 nm) and a linear relationship between the known concentrations and the measured absorptions was determined.
Saturated aqueous solutions of the coinitiators were diluted up to the point that the measured absorption falls in the linear region found above. The concentrations of the coinitiators in the saturated aqueous solutions are determined via the Lambert-Beer law.

Row | Molecule | solubility [µg/mL]
1 | CCCCOCCOC(=O)c1ccc(N(C)C)cc1 [2-(n-Butoxy)ethyl 4-dimethylaminobenzoate] | 35 (≈ 132 µM)
2 | COCCNC(=O)c1ccc(N(C)C)cc1 [4-Dimethylamino-N-(2-methoxyethyl)benzamide] | 2670 (≈ 12000 µM)
3 | CCCNC(=O)c1ccc(N(C)C)cc1 [4-Dimethylamino-N-propylbenzamide] | 680 (≈ 3300 µM)
4 | CN(C)c1ccc(C(N)=O)cc1 [4-Dimethylaminobenzamide] | 427 (≈ 2600 µM)
5 | CN(C)c1ccc(C#N)cc1 [4-Dimethylaminobenzonitrile] | 278 (≈ 1900 µM)
6 | CCCCC(CC)COC(=O)c1ccc(N(C)C)cc1 (centres unmarked) [EHA, 2-Ethylhexyl 4-dimethylaminobenzoate] | 26 (≈ 93.7 µM)
7 | CCOC(=O)c1ccc(N(C)C)cc1 [Ethyl 4-dimethylaminobenzoate] | 36 (≈ 186 µM)

Same assay, conditions: saturated solution in deionized water, 23±2° C.

Row | Molecule | solubility [µg/mL]
8 | Polyethylene glycol monomethyl ether 4-dimethylaminobenzoate [PEGA] | > 766000
